From patent US10413610B2, “Liquid formulation” (Luoda Pharma Pty Ltd, priority 2012, dated 2019)

Experiments:
[1] = cited from earlier work
[2] = design: species or system dogs; conditions: dog, in vivo
Source text: The results for both IVPs 3 and 4 are consistent with this value.

published AUC for benazeprilat scaled to a dose of 0.25 mg/kg [2] [ng/h/mL] | Compound | effect of addition of HPβCD on aqueous solubility of pimobendan ([1]; pH between 3 and 5) | solubility at pH 7 ([1]; water, pH 7) [mg per 100 mL] | volume of water in which 1 g of pimobendan dissolves ([1]; water)
 | COc1ccc(-c2nc3ccc(C4=NNC(=O)CC4C)cc3[nH]2)cc1 (racemic) [pimobendan, (RS)-6-[2-(4-methoxyphenyl)-1H-benzimidazol-5-yl]-5-methyl-4,5-dihydropyridazin-3(2H)-one] | does not effectively increase the aqueous solubility | 0.1 | 10,000 mL
114.9 | CCOC(=O)[C@H](CCc1ccccc1)N[C@H]1CCc2ccccc2N(CC(=O)O)C1=O [benazepril, Benazepril] |  |  | 
